The target in this test is T1, Alpha-1A adrenergic receptor (Homo sapiens, UniProt P35348).
T1 sequence (P35348 whole entry): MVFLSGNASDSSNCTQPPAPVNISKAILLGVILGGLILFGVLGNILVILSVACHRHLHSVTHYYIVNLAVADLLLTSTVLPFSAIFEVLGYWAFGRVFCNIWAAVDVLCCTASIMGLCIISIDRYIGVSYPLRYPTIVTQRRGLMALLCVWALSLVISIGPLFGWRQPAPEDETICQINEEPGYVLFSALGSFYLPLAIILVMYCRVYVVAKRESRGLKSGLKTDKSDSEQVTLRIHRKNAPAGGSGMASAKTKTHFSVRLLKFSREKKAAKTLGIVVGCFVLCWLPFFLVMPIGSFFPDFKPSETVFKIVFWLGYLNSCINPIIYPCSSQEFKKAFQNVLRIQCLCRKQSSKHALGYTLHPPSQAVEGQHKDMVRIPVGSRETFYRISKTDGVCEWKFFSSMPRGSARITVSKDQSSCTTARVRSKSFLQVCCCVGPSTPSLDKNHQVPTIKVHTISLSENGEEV
Briefly: Binding affinity to Homo sapiens (human) alpha1A adrenergic receptor.

As a reminder, the Ki is the equilibrium dissociation constant of an inhibitor or competing ligand from its target. Read a low Ki as tighter binding. Molecule `COC(=O)C1=C(C)NC(C)=C(C(=O)NCCCN2CCC(C(=O)OC)(c3ccccc3)CC2)C1c1ccc([N+](=O)[O-])cc1` (stereo unspecified) showed a Ki of 3.55 nM. This counts as single-digit nanomolar.

On to `COC(=O)C1(c2ccccc2)CCN(CCCNC(=O)C2=C(C)NC(C)=C(C(=O)OCCO)C2c2ccc([N+](=O)[O-])cc2)CC1` (stereo unspecified), for which the Ki is 3.63 nM. This Ki and that of the molecule before are within 1.5-fold of each other.

`COC(=O)C1=C(C)NC(C)=C(C(=O)NCCCCN2CCC(c3ccccc3)(c3ccccc3)CC2)C1c1ccc([N+](=O)[O-])cc1` (racemic): the Ki is 14.8 nM. Compared with the last molecule, the Ki is about 4.1-fold higher.

In turn, `COC(=O)C1=C(C)NC(C)=C(C(=O)NCCCN2CCC(c3ccccc3)CC2)C1c1ccc([N+](=O)[O-])cc1` (racemic) showed a Ki of 0.229 nM.

For the molecule `COC(=O)C1=C(C)NC(C)=C(C(=O)NCCCN2CCC(c3ccccc3)(c3ccccc3)CC2)C1c1ccc(C)cc1` (racemic), the Ki is 1.38 nM. Against the preceding molecule, the Ki is about 6-fold higher.

For `COC(=O)C1=C(C)NC(C)=C(C(=O)NCCCN2CCC(c3ccccc3)CC2)C1c1ccc(Cl)c([N+](=O)[O-])c1` (racemic), the Ki was 0.525 nM. This Ki is about 2.6-fold lower than that of the molecule before.
